Experimental data taken from ChEMBL document CHEMBL3272295, “Drugs derived from cannabinoids. 5. delta6a,10a-Tetrahydrocannabinol and heterocyclic analogs containing aromatic side chains” (J Med Chem, 1976).
Activity calls are given as the source filed them. The rule behind the calls is not given here.

Experiments:
[1] = test system: Mus musculus; experiment: Analgesic activity in po dosed mouse assessed as inhibition of acetic acid-induced writhing administered 30 mins prior to acetic acid challenge measured after 5 mins for 20 mins; format: functional
[2] = test system: Rattus norvegicus; experiment: Analgesic activity in po dosed Sprague-Dawley rat after 15 to 90 mins by tail flick test; format: functional
[3] = test system: Rattus norvegicus; experiment: Antipsychotic activity in rat assessed as reduction of methamphetamine-induced hyperactivity at 5 mg/kg, po administered prior to methamphetamine challenge relative to vehicle-treated control; format: functional; design: scale not given: the % may be the effect or the level left
[4] = Acute toxicity in po dosed mouse; format: organism-based; details: in vivo
[5] = test system: Mus musculus; experiment: Antianxiety activity in albino BALB/cJ mouse assessed as reduction in footshock-induced fighting behavior at 10 mg/kg, po after 30 to 90 mins; format: functional; design: scale not given: the % may be the effect or the level left
[6] = test system: Rattus norvegicus; experiment: Antianxiety activity in Long-Evans rat assessed as reduction in motor activity at 5 mg/kg, po after 2 hrs relative to vehicle-treated control; format: functional; design: scale not given: the % may be the effect or the level left
[7] = test system: Rattus norvegicus; experiment: Antihypertensive activity in spontaneously hypertensive rat model assessed as reduction in blood pressure at 1 mg/kg, po after 24 hrs; format: functional; design: scale not given: the % may be the effect or the level left
[8] = test system: Rattus norvegicus; experiment: Antihypertensive activity in spontaneously hypertensive rat model assessed as reduction in blood pressure at 3 mg/kg, po after 3 hrs; format: functional; design: scale not given: the % may be the effect or the level left
[9] = test system: Rattus norvegicus; experiment: Antihypertensive activity in spontaneously hypertensive rat model assessed as reduction in blood pressure at 1 mg/kg, po after 3 hrs; format: functional; design: scale not given: the % may be the effect or the level left
[10] = test system: Rattus norvegicus; experiment: Antihypertensive activity in spontaneously hypertensive rat model assessed as reduction in blood pressure at 3 mg/kg, po after 24 hrs; format: functional; design: scale not given: the % may be the effect or the level left
[11] = test system: Mus musculus; experiment: Analgesic activity in mouse assessed as inhibition of acetic acid-induced writhing at 10 mg/kg, po administered 30 mins prior to acetic acid challenge measured after 5 mins for 20 mins; format: functional
[12] = test system: Mus musculus; experiment: Antianxiety activity in albino BALB/cJ mouse assessed as reduction in footshock-induced fighting behavior at 5 mg/kg, po after 30 to 90 mins; format: functional; design: scale not given: the % may be the effect or the level left
[13] = test system: Rhesus monkey; experiment: Antianxiety activity in po dosed rhesus monkey assessed as antiagressive behavior measured every hour post dosing; format: functional; details: Macaca mulatta, read-out: MED
[14] = test system: Mus musculus; experiment: Anticonvulsant activity in po dosed mouse assessed as dose required to protect 80% of animal measured after 1 to 4 hrs by audiogenic seizure test; format: functional
[15] = test system: Felis catus; experiment: Hypnotic activity in cat assessed as increase in non-REM sleep time at 0.5 mg/kg administered orally through diet measured for 12 hrs by EEG analysis; format: functional; details: route oral
[16] = test system: Canis familiaris; experiment: Antianxiety activity in po dosed dog assessed as ataxia administered as single dose measured up to 24 hrs; format: functional; details: Canis lupus familiaris, read-out: MED
[17] = test system: Rattus norvegicus; experiment: Antipsychotic activity in rat assessed as reduction of methamphetamine-induced hyperactivity at 2 mg/kg, po administered prior to methamphetamine challenge relative to vehicle-treated control; format: functional; design: scale not given: the % may be the effect or the level left
[18] = test system: Felis catus; experiment: Hypnotic activity in cat assessed as increase in total sleep time at 0.5 mg/kg administered orally through diet measured for 12 hrs by EEG analysis; format: functional; details: route oral
[19] = test system: Rattus norvegicus; experiment: Antianxiety activity in Long-Evans rat assessed as reduction in motor activity at 1 mg/kg, po after 2 hrs relative to vehicle-treated control; format: functional; design: scale not given: the % may be the effect or the level left
[20] = species on record: Rattus norvegicus; experiment: animal or person; format: functional; details: Charles River, route oral
Description: Antidiarrheal activity in Charles River rat assessed as inhibition of castor oil-induced diarrhea by measuring protected animals at 0.5 mg/kg, po administered 1 hr prior to castor oil challenge measured after 1 hr relative to vehicle-treated control

[21] = test system: Rattus norvegicus; experiment: Antipsychotic activity in rat assessed as reduction of methamphetamine-induced hyperactivity at 10 mg/kg, po administered prior to methamphetamine challenge relative to vehicle-treated control; format: functional; design: scale not given: the % may be the effect or the level left

## CC1CCc2c(c3c(O)cc(C(C)CCCc4ccccc4)cc3oc2=O)C1 (centres undefined)
[1]
  inhibition: inactive
[2]
  Activity: inactive

## CC1CCc2c(c3c(O)cc(C(C)CCCN(C)C)cc3oc2=O)C1 (centres undefined)
[1]
  inhibition: inactive
[2]
  Activity: inactive

## CC(CCCCc1ccc(F)cc1)c1cc(O)c2c(c1)OC(C)(C)C1=C2CN(Cc2ccccc2)CC1 (centres undefined)
[1]
  inhibition: inactive
[2]
  Activity: inactive

## Cc1ccc(CCCC(C)c2cc(O)c3c4c(c(=O)oc3c2)CCC(C)C4)cc1 (centres undefined)
[1]
  inhibition: inactive
[2]
  Activity: inactive

## C#CCN1CCC2=C(C1)c1c(OC(=O)CCCN3CCOCC3)cc(C(C)CCCc3ccc(F)cc3)cc1OC2(C)C.Cl.Cl (centres undefined)
[1]
  ED50: 9 mg/kg
[2]
  ED50: 5 mg/kg
[3]
  Activity: 33%
[4]
  LD50: ≥ 1000 mg/kg
[5]
  Activity: 0%
[6]
  Activity: 48%

## CC(CCCc1ccc(F)cc1)c1cc(O)c2c3c(c(=O)oc2c1)CCN(Cc1ccccc1)C3 (centres undefined)
[1]
  inhibition: inactive
[2]
  Activity: inactive

## CC1CCc2c(c3c(O)cc(CCCCCc4ccc(F)cc4)cc3oc2=O)C1 (centres undefined)
[1]
  inhibition: inactive
[2]
  Activity: inactive

## CC1CCc2c(c3c(O)cc(C(C)CCc4ccc(F)cc4)cc3oc2=O)C1 (centres undefined)
[1]
  inhibition: inactive
[2]
  Activity: inactive

## CCCCCc1cc(O)c2c(c1)OC(C)(C)C1=C2CNCC1
[1]
  inhibition: inactive
[2]
  Activity: inactive

## CC(CCc1ccc(F)cc1)c1cc(O)c2c(c1)OC(C)(C)C1=C2CN(Cc2ccccc2)CC1 (centres undefined)
[1]
  inhibition: inactive
[2]
  Activity: inactive

## CC1CCc2c(c3c(O)cc(C(C)CCCCc4ccc(F)cc4)cc3oc2=O)C1 (centres undefined)
[1]
  inhibition: inactive
[2]
  Activity: inactive

## CCCCCc1cc(O)c2c(c1)OC(C)(C)C1=C2CN(Cc2ccccc2)CC1
[1]
  inhibition: inactive
[2]
  Activity: inactive

## CC1CCC2=C(C1)c1c(O)cc(CCCCCc3ccc(F)cc3)cc1OC2(C)C (centres undefined)
[7]
  Activity: 9%
[3]
  Activity: 39%
[8]
  Activity: 27%
[4]
  LD50: ≥ 1000 mg/kg
[9]
  Activity: 6%
[10]
  Activity: 17%
[11]
  inhibition in vivo at 10 mg/kg: 41%
[6]
  Activity: 16%
[12]
  Activity: 36%

## CC1CCc2c(c3c(O)cc(C(C)C(C)CCc4ccc(F)cc4)cc3oc2=O)C1 (centres undefined)
[1]
  inhibition: inactive
[2]
  Activity: inactive

## Cc1ccc(CCCC(C)c2cc(O)c3c4c(c(=O)oc3c2)CCN(Cc2ccccc2)C4)cc1 (centres undefined)
[1]
  inhibition: inactive
[2]
  Activity: inactive

## CC1CCC2=C(C1)c1c(O)cc(C(C)CCCc3ccccc3)cc1OC2(C)C (centres undefined)
[1]
  ED50: 17 mg/kg
[13]
  minimal effective dose: 0.5 mg/kg
[14]
  Activity: 30 mg/kg
[15]
  Time: 2 min
[16]
  minimal effective dose: 1 mg/kg
[3]
  Activity: 77%
[4]
  LD50: 750 mg/kg
[5]
  Activity: 77%
[17]
  Activity: 46%
[6]
  Activity: 36%
[18]
  Time: 28 min

## CC(CCCCc1ccc(F)cc1)c1cc(O)c2c(c1)OC(C)(C)C1=C2CNCC1 (centres undefined)
[1]
  inhibition: inactive
[2]
  Activity: inactive

## Cc1ccc(CCCC(C)c2cc(O)c3c(c2)OC(C)(C)C2=C3CN(Cc3ccccc3)CC2)cc1 (centres undefined)
[1]
  inhibition: inactive
[2]
  Activity: inactive

## CC(CCCc1ccc(F)cc1)C(C)c1cc(O)c2c(c1)OC(C)(C)C1=C2CN(Cc2ccccc2)CC1 (centres undefined)
[1]
  inhibition: inactive
[2]
  Activity: inactive

## Cc1ccc(CCCC(C)c2cc(O)c3c(c2)OC(C)(C)C2=C3CNCC2)cc1 (centres undefined)
[1]
  inhibition: inactive
[2]
  Activity: inactive

## CC(CCCc1ccc(F)cc1)c1cc(O)c2c3c(c(=O)oc2c1)N1CCC3CC1 (centres undefined)
[1]
  inhibition: inactive
[2]
  Activity: inactive

## CC1CCC2=C(C1)c1c(O)cc(C(C)CCCCc3ccc(F)cc3)cc1OC2(C)C (centres undefined)
[19]
  Activity: 40%
[1]
  ED50: 20.5 mg/kg
[20]
  inhibition in vivo at 0.5 mg/kg: 80%
[7]
  Activity: 4%
[3]
  Activity: 65%
[8]
  Activity: 33%
[4]
  LD50: 750 mg/kg
[21]
  Activity: 71%
[9]
  Activity: 7%
[10]
  Activity: 14%
[6]
  Activity: 73%
[12]
  Activity: 4%
